The results in this text go back to patent US5866567A, “Diazepinones, their production and use” (Takeda Chemical Industries, Ltd., priority 1995, dated 1999).

This assay concerns the target T1, Human GnRH receptor (Homo sapiens, UniProt P30968).
T1 construct: expressed in transfected cells; host or cells: CHO (Chinese hamster ovary) cells, membrane fraction
T1 sequence (P30968 1-328): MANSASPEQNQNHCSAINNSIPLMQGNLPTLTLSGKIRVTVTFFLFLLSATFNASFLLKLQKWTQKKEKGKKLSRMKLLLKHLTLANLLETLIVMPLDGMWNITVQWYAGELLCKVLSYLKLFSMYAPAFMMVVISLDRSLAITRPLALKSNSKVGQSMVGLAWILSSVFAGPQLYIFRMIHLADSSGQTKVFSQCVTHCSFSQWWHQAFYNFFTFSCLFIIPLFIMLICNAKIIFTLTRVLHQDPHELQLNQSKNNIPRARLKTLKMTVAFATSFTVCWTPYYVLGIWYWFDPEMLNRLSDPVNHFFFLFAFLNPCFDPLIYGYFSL
The experiment in a line: Human GnRH receptor binding inhibition assay (125I-leuprolerin, membrane fraction of CHO cells expressing human GnRH receptors). Conditions: CHO cell membrane fraction with human GnRH receptors, 25° C., 60 minutes, concentration series, Hill plot, read-out: Binding inhibitory activity (IC50). The protocol: Human GnRH receptor binding inhibition assay
(A) Preparation of ^125 I-leuprolerin
Ten (10) μl of 3×10^-4 M aqueous leuprolerin solution and 10 μl of 0.01 mg/ml lactoperoxidase solution were taken in a tube, and 10 μl of Na^125 I solution (37 MBq) was added. After stirring, 10 μl of 0.001% H2 O2 was added and the reaction was conducted at room temperature for 20 minutes. The reaction was stopped by adding 700 μl of 0.05% TFA solution, and the reaction mixture was purified by reversed HPLC. The HPLC parameters are shown below. The retention time of ^125 I-leuprolerin was 26-27 minutes.
Column: TSKgel ODS-80™ CTR (4.6 mm×10 cm)
Eluent: Solvent A (0.05%TFA) Solvent B (40%CH3 CN-0.05%TFA)
Min. 0 (100% Solvent A)--Min. 3 (100% Solvent A)--Min. 7 (50% Solvent A+50% Solvent B)--Min. 40 (100% Solvent B) Elution temperature: room temperature Elution flow rate: 1 ml/min.
CHO cells (10^9 cells) with human GnRH receptors expressed were floated on phosphate-buffered saline containing EDTA (PBS-EDTA) and centrifuged at 100×g for 5 minutes. To the pellet obtained was added 10 ml of a cell homogenate buffer (10 mM NaHCO3, 5 mM EDTA, pH 7.5) and the mixture was homogenized using a Polytron homogenizer. The homogenate was centrifuged at 400×g for 15 minutes and the supernatant was taken in an ultracentrifuge tube and recentrifuged at 100,000×g for 1 hour. The membrane fraction thus obtained as a pellet was suspended in 2 ml of assay buffer and centrifuged at 100,000×g for 1 hour. The membrane fraction recovered was resuspended in 20 ml of assay buffer and the suspension was portioned, stored at -80° C., and thawed when needed.
(C) Determination of the ^125 I-leuprolerin binding inhibition rate
The membrane fraction prepared in Step (B) was diluted with assay buffer to 200 μg/ml and the dilution was portioned into tubes, 188 μl per tube. Then, 2 μl of 2 mM solution of the test compound in 60% DMSO and 10 μl of 38 nM ^125 I-leuprolerin solution in the same solvent were simultaneously added to the tubes. To determine the maximum binding, a test mixture of 2 μl of 60% DMSO and 10 μl of 38 nM ^125 I-leuprolerin solution in the same solvent was prepared. For the determination of nonspecific binding, a test mixture of 2 μl of 100 μM leuprolerin solution in 60% DMSO and 10 μl of 38 nM solution of ^125 I-leuprolerin in the same solvent was also prepared. The mixtures were respectively allowed to react at 25° C. for 60 minutes and the reaction product in each tube was filtered through a poly(ethylene imine)-treated Whatman glass filter (GF-F) under suction. The radioactivity of ^125 I-leuprolerin remaining on the filter was determined using a γ-counter.
Using the measured values, the following equation was calculated to find the binding inhibition rate for each test compound.
Binding inhibition (%)=(TB-SB)/(TB-NSB)×100
[SB: radioactivity with the compound added
TB: maximum bound radioactivity
NBS: nonspecifically bound radioactivity]
Using a concentration series of each test compound, the concentration of the compound which inhibited the binding by 50% (IC50) was calculated by Hill plot.

For the compound `O=C(Nc1ccc(CN2C(=O)[C@H]3CCC[C@H]3N(C(=O)CN3C(=O)c4ccccc4C3=O)c3ccccc32)cc1)c1ccc(Br)cc1` (relative stereo) [Example 12, (3aR*,10aS*)-9-[4-(4-Bromobenzamido)benzyl]-4-(phthalimidoacetyl)-2,3,3a,4,9,10a-hexahydrobenzo[b]cyclopenta[e][1,4]diazepin-10(1H)-one], the IC50 amounted to 300 nM.

Turning to `O=C(Nc1ccc(CN2C(=O)[C@H]3CCC[C@H]3N(C(=O)CN3C(=O)c4ccccc4C3=O)c3ccccc32)cc1)OCc1ccccc1` (relative stereo) [Example 1, (3aR*,10aS*)-9-[4-(Benzyloxycarbonylamino)benzyl]-4-(phthalimidoacetyl)-2,3,3a,4,9,10a-hexahydrobenzo[b]cyclopenta[e][1,4]diazepin-10(1H)-one], the IC50 was determined as 100 nM.

For `O=C(Nc1ccc(CN2C(=O)[C@H]3CCC[C@H]3N(C(=O)CN3C(=O)c4ccccc4C3=O)c3ccccc32)cc1)c1ccccc1` (relative stereo) [Example 7, (3aR*,10aS*)-9-(4-Benzamidobenzyl)-4-(phthalimidoacetyl)-2,3,3a,4,9,10a-hexahydrobenzo[b]cyclopenta[e]-[1,4]diazepin-10(1H)-one], the IC50 was 200 nM.

Consider `CCC(=O)Nc1ccc(CN2C(=O)[C@H]3CCC[C@H]3N(C(=O)CN3C(=O)c4ccccc4C3=O)c3ccccc32)cc1` (relative stereo) [Example 6, (3aR*,10aS*)-4-(Phthalimidoacetyl)-9-(4-propionamidobenzyl)-2,3,3a,4,9,10a-hexahydrobenzo[b]cyclopenta[e][1,4]diazepin-10(1H)-one], for which the IC50 was 800 nM.

As for `O=C(Nc1ccc(CN2C(=O)[C@H]3CCC[C@H]3N(C(=O)CN3C(=O)c4ccccc4C3=O)c3ccccc32)cc1)c1ccccc1F` (relative stereo) [Example 8, (3aR*,10aS*)-9-[4-(2-Fluorobenzamido)benzyl]-4-(phthalimidoacetyl)-2,3,3a,4,9,10a-hexahydrobenzo[b]cyclopenta[e][1,4]diazepin-10(1H)-one], the IC50 came to 300 nM.

Regarding `COc1cccc(C(=O)Nc2ccc(CN3C(=O)[C@H]4CCC[C@H]4N(C(=O)CN4C(=O)c5ccccc5C4=O)c4ccccc43)cc2)c1` (relative stereo) [Example 14, (3aR*,10aS*)-9-[4-(3-Methoxybenzamido)benzyl]-4-(phthalimidoacetyl)-2,3,3a,4,9,10a-hexahydrobenzo[b]cyclopenta[e][1,4]diazepin-10(1H)-one], the IC50 stood at 200 nM.

In the case of `O=C(CCc1ccccc1)Nc1ccc(CN2C(=O)[C@H]3CCC[C@H]3N(C(=O)CN3C(=O)c4ccccc4C3=O)c3ccccc32)cc1` (relative stereo) [Example 17, (3aR*,10aS*)-9-[4-(3-Phenylpropionamido)benzyl]-4-(phthalimidoacetyl)-2,3,3a,4,9,10a-hexahydrobenzo[b]cyclopenta[e][1,4]diazepin-10(1H)-one], the half-inhibitory concentration (IC50) was 500 nM.

In the case of `O=C(COc1ccccc1)Nc1ccc(CN2C(=O)[C@H]3CCC[C@H]3N(C(=O)CN3C(=O)c4ccccc4C3=O)c3ccccc32)cc1` (relative stereo) [Example 18, (3aR*,10aS*)-9-[4-(Phenoxyacetamido)benzyl]-4-(phthalimidoacetyl)-2,3,3a,4,9,10a-hexahydrobenzo[b]cyclopenta[e][1,4]diazepin-10(1H)-one], the IC50 came out at 600 nM.

Consider `O=C(NCc1ccccc1)Nc1ccc(CN2C(=O)[C@H]3CCC[C@H]3N(C(=O)CN3C(=O)C4=C(CCCC4)C3=O)c3ccccc32)cc1` (relative stereo) [Example 26, (3aR*,10aS*)-9-[4-(3-Benzylureido)benzyl]-4-(2H-1,3-dioxo-1,3,4,5,6,7-hexahydroisoindole-2-acetyl)-2,3,3a,4,9,10a-hexahydrobenzo[b]cyclopenta[e][1,4]diazepin-10(1H)-one], for which the IC50 came out at 40 nM.

`COc1ccc(CNC(=O)Nc2ccc(CN3C(=O)[C@H]4CCC[C@H]4N(C(=O)CN4C(=O)c5ccccc5C4=O)c4ccccc43)cc2)cc1` (relative stereo) [Example 32, (3aR*,10aS*)-9-[4-[3-(4-Methoxybenzyl)ureido]-benzyl]-4-(phthalimidoacetyl)-2,3,3a,4,9,10a-hexahydro-benzo[b]cyclopenta[e][1,4]diazepin-10(1H)-one]: the IC50 amounted to 40 nM.

In the case of `O=C(NCCc1ccccc1)Nc1ccc(CN2C(=O)[C@H]3CCC[C@H]3N(C(=O)CN3C(=O)c4ccccc4C3=O)c3ccccc32)cc1` (relative stereo) [Example 30, (3aR*,10aS*)-9-[4-[3-(2-Phenylethyl)ureido]benzyl]-4-(phthalimidoacetyl)-2,3,3a,4,9,10a-hexahydrobenzo[b]-cyclopenta[e][1,4]diazepin-10(1H)-one], the IC50 stood at 40 nM.

Consider `C[C@@H](NC(=O)Nc1ccc(CN2C(=O)[C@H]3CCC[C@H]3N(C(=O)CN3C(=O)c4ccccc4C3=O)c3ccccc32)cc1)c1ccccc1` (relative stereo) [Example 27, (3aR*,10aS*)-9-[4-[3-((R)-1-Phenylethyl)ureido]-benzyl]-4-(phthalimidoacetyl)-2,3,3a,4,9,10a-hexahydrobenzo[b]cyclopenta[e][1,4]diazepin-10(1H)-one], for which the 50% inhibitory concentration (IC50) was found to be 20 nM.

Consider `O=C(Nc1ccc(CN2C(=O)[C@H]3CCC[C@H]3N(C(=O)CN3C(=O)c4ccccc4C3=O)c3ccccc32)cc1)c1ccc2ccccc2c1` (relative stereo) [Example 21, (3aR*,10aS*)-9-[4-(2-Naphthoylamino)benzyl]-4-(phthalimidoacetyl)-2,3,3a,4,9,10a-hexahyrobenzo[b]cyclopenta[e][1,4]diazepin-10(1H)-one], for which the IC50 came out at 200 nM.

In the case of `O=C(Nc1ccc(CN2C(=O)[C@H]3CCC[C@H]3N(C(=O)CN3C(=O)c4ccccc4C3=O)c3ccccc32)cc1)c1ccc(F)cc1` (relative stereo) [Example 10, (3aR*,10aS*)-9-[4-(4-Fluorobenzamido)benzyl]-4-(phthalimidoacetyl)-2,3,3a,4,9,10a-hexahydrobenzo[b]cyclopenta[e][1,4]diazepin-10(1H)-one], the IC50 came to 200 nM.

On to `O=C(NCc1ccccc1)Nc1ccc(CN2C(=O)[C@H]3CCC[C@H]3N(C(=O)CN3C(=O)c4ccccc4C3=O)c3ccccc32)cc1` (relative stereo) [Example 25, (3aR*,10aS*)-9-[4-(3-benzylureido)benzyl]-4-(phthalimidoacetyl)-2,3,3a,4,9,10a-hexahydrobenzo[b]cyclopenta[e][1,4]diazepin-10(1H)-one], for which the concentration for half-maximal inhibition (IC50) was 30 nM.

Consider `O=C(Nc1ccc(CN2C(=O)[C@H]3CCC[C@H]3N(C(=O)CN3C(=O)c4ccccc4C3=O)c3ccccc32)cc1)c1cccc(F)c1` (relative stereo) [Example 9, (3aR*,10aS*)-9-[4-(3-Fluorobenzamido)benzyl]-4-(phthalimidoacetyl)-2,3,3a,4,9,10a-hexahydrobenzo[b]cyclopenta[e][1,4]diazepin-10(1H)-one], for which the IC50 was 200 nM.

As to `O=C(Nc1ccc(CN2C(=O)[C@H]3CCC[C@H]3N(C(=O)CN3C(=O)C4=C(CCCC4)C3=O)c3ccccc32)cc1)OCc1ccccc1` (relative stereo) [Example 2, (3aR*,10aS*)-9-[4-(Benzyloxycarbonylamino)benzyl]-4-(2H-1,3-dioxo-1,3,4,5,6,7-hexahydroisoindole-2-acetyl)-2,3,3a,4,9,10a-hexahydrobenzo[b]cyclopenta[e][1,4]diazepin-10(1H)-one], the IC50 amounted to 70 nM.

Broadly, the IC50 is the concentration at which inhibition is half-maximal.
